The values below come from patent publication US20110300628A1, “ENHANCEMENT OF EPIDERMAL CELL GROWTH BY NON-PROTEIN GROWTH FACTORS” (priority 2010, published 2011).

The structures appear in SMILES notation.

Test [1] concerns normal human keratinocytes (NHK cells). The experiment in a line: Clonal growth assay of normal human keratinocytes in serum-free chemically defined medium. The class given is cell-based. The settings on record: for clonal growth of NHK relative to control medium supplemented with IGF-1 and EGF: additive in combination with IGF-1 (5 ng/mL), no EGF, 10 days after plating, diBcAMP 0.1 mM, LiCl 10 mM, PGE1 10 μg/ml; for replacement of protein growth factor requirement for clonal growth of NHK: serum-free medium, 10 days clonal growth; for effect on clonal growth in high (3×) levels of the six key amino acids: 3× amino acids; for clonal growth of NHK relative to culture medium supplemented with EGF plus IGF-1: 10 days. As for the experimental part: The methods for isolating and culturing primary and secondary-passaged normal human neonatal normal human keratinocyte (NHK cells) were those previously employed (Wille et al., 1984). For the purpose of the present invention, secondary serially-passaged cultures were plated at 500 cells/cm in a novel serum-free basal media previously disclosed (Wille J. J., U.S. Pat. No. 5,586,307). This basal nutrient defined culture medium was supplemented either singly with the following additives: diBCAMP (1×10−4 M), LiCl (10 mM), and PGE1 ([…]). All dishes were fixed ten days later, stained with crystal violet stain (0.2%) and photographed.

A further test has as its system keratinocyte cells. The settings on record: low calcium (0.03 mM) or calcium-free, serum-free medium; cited from earlier work.

As for `CCCC(=O)Nc1ncnc2c1ncn2[C@@H]1O[C@@H]2COP(=O)(O)O[C@H]2[C@H]1OC(=O)CCC` [diBcAMP, dibutryl-3′-5′-adenosine monophosphate], in test [1], the “clonal growth of NHK relative to control medium supplemented with IGF-1 and EGF” value is reported as “significantly enhanced”; the “replacement of protein growth factor requirement for clonal growth of NHK” value (“replacement” below) is “can replace EGF”. Moreover, in test [1] (listed as diBCAMP), the “clonal growth of NHK relative to control medium supplemented with IGF-1 and EGF” value is listed as “does enhance”.

For the compound `[Cl-].[Li+]` [Li+ ions, Lithium chloride], the “multiplication of human keratinocyte cells” value in test [1] (10 mM, serum-free chemically defined medium) is listed as “stimulate”. In test [1] (1× amino acids, with protein growth factors), the “effect on clonal growth in low (1×) levels of the six key amino acids” value is “growth-enhancing effects”. The “effect on clonal growth in high (3×) levels of the six key amino acids” value was “lost” in test [1] (with protein growth factors, listed as lithium ions) and “no enhancement” in test [1] (with protein growth factors, listed as lithium ions (Li+)). For the same compound, the “clonal growth of NHK relative to control medium supplemented with IGF-1 and EGF” value in test [1] is “significantly enhances”. Also, the “replacement” value in test [1] is recorded as “can replace EGF”; in test [1] (listed as Lithium ions), “completely replaced EGF”.

For the compound `[Sr+2]` [Strontium ions (Sr 2+)], the “concentration of maximal enhancement of cell viability and increase in cell number” value with keratinocyte cells was 1.0 to 2.0 mM.

In the case of `CCCCC[C@H](O)/C=C/[C@H]1[C@H](O)CC(=O)[C@@H]1CCCCCCC(=O)O` [PGE1, Prostaglandin E1], in test [1], the “clonal growth of NHK relative to control medium supplemented with IGF-1 and EGF” value is given as “significantly enhanced”; the “replacement” value is “can replace both EGF and IGF-1”. Also, the “clonal growth of NHK relative to culture medium supplemented with EGF plus IGF-1” value in test [1] (in combination with both EGF and IGF-1) was “significantly enhanced”. In addition, the “clonal growth in elevated (3×) levels of the six key amino acids relative to lower (1×) levels” value in test [1] (in the presence of insulin (5 μg/mL) and EGF (10 ng/mL)) is “significant enhancement”. Further, the “clonal growth of NHK relative to culture medium supplemented with EGF plus IGF-1” value in test [1] (single addition to medium unsupplemented by any protein growth factors) was “significantly enhanced”.
